Laboratory results taken from patent US20160095867A1, “BET INHIBITION THERAPY FOR HEART DISEASE” (DANA-FARBER CANCER INSTITUTE, INC., priority 2013, published 2016).

What was measured:
BRD4 = biological target: T1, BRD4 (Rattus norvegicus, UniProt A0A8I6A216); test: ChIP-qPCR of BRD4 and Pol II at the IL6 proximal promoter in NRVM; type: cell-based; conditions: JQ1 500 nM, PE 100 μM, 90 min
T1 construct: endogenous in cells; host or cells: NRVM (primary neonatal rat ventricular cardiomyocytes)
Method: NRVM were plated in 15 cm dishes at 5×10^6 cells/dish. Chromatin pooled from approximately 15×10^6 NRVM were used for each immunoprecipitation. After indicated treatments, NRVM were fixed directly on the dish with 1% formaldehyde for 10 minutes followed by quenching with 0.125M glycine for 5 minutes. Chromatin was extracted, followed by shearing on a BioRuptor (Diagenode; total 16 cycles, hi-power, 30 sec on/off). The sonicated chromatin was immunoprecipitated with 5 μg of antibody bound to Dynabeads (Invitrogen) followed by extensive washing and elution. Immunoprecipitate and input chromatin samples were then reverse cross-linked followed by purification of genomic DNA. Target and non-target regions of genomic DNA were amplified by qRT-PCR in both the immunoprecipitates and input samples using Sybrgreen chemistry. Enrichment data were analyzed by calculating the immunoprecipitated DNA percentage of input DNA for each sample as previously described (Ott et al., 2012). Antibodies used in ChIP were BRD4 (Bethyl #A301-985A) and RNA Polymerase II (Santa Cruz N-20, sc-899).

[1] = Treadmill endurance exercise capacity in mice; type: in vivo, mouse; conditions: JQ1 50 mg/kg/day IP, 2-3 weeks (17 days)
Source text: (§1) For transthoracic echocardiography, mice were anesthetized with 1% inhalational isofluorane and imaged using the Vevo 770 High Resolution Imaging System (Visual Sonics, Inc.) and the RMV-707B 30 MHz probe. Measurements were obtained from M-mode sampling and integrated EKV images taken in the LV short axis at the mid-papillary level (Haldar et al., 2010). Measurements of pressure gradients across the constricted portion of the aorta were obtained by high frequency Doppler as previously described (Liu et al., 2012). Conscious tail-vein systolic blood pressure was measured using the BP2000 Blood Pressure Analysis System (Visitech Systems, Inc.) as recommended by the manufacturer. To allow mice to adapt to the apparatus, we performed daily blood pressure measurements for one week prior to beginning experiments. Treadmill endurance exercise testing was performed on a motorized mouse treadmill (Columbus Instruments) as previously described (Haldar et al., 2012).

mice subject to TAC = test: Transverse aortic constriction (TAC) model, JQ1 begun 1.5 days after TAC; type: in vivo, mouse
Method: JQ1 was synthesized and purified in the laboratory of Dr. James Bradner (DFCI) as previously published (Filippakopoulos et al., 2010). For in vivo experiments, a stock solution (50 mg/mL in DMSO) was diluted to a working concentration of 5 mg/mL in aqueous carrier (10% hydroxypropyl β-cyclodextrin; Sigma C0926) using vigorous vortexing. Mice were injected at a dose of 50 mg/kg given intraperitoneally once daily. Vehicle controls were given an equal amount of DMSO in carrier solution. All solutions were prepared and administered using sterile technique. For in vitro experiments, JQ1 and other BET inhibitors were dissolved in DMSO and administered to cells at indicated concentrations using an equal volume of DMSO as control. The BET inhibitors used were as follows: iBET, iBET-151, RVX-208, and PF-1.
(§2) All mice were C57Bl/6J littermate males aged 10-12 weeks. For TAC, mice were anesthetized with ketamine/xylazine, mechanically ventilated (Harvard apparatus), and subject to thoracotomy. The aortic arch was constricted between the left and right carotid arteries using a 7.0 silk suture and a 27-gauge needle as previously described (Hu et al., 2003). In our hands, this protocol a consistent peak pressure gradient of approximately 50 mmHg across the constricted portion of the aorta. For PE infusion, mice were anesthetized using continuous 1% inhalational isofluorane. Mini-osmotic pumps (Alzet 2004, Durect Corp.) were filled with phenylephrine hydrochloride (PE, Sigma) or vehicle (normal saline) and implanted subcutaneously on the dorsal aspect of the mouse. PE was infused at a dose of 75 mg/kg/day for 17 days. Injections of JQ1 or vehicle were begun 1.5 days postoperatively.
as §1
Short-axis heart sections from the mid-ventricle were fixed in PBS/4% paraformaldehyde and embedded in paraffin. Cardiomyocyte cross sectional area was determined by staining with rhodamine-conjugated wheat-germ agglutinin (Vector Laboratories RL-1022) as quantified as previously described (Froese et al., 2011). Fibrosis was visualized using Masson's Trichrome staining kit (Biocare medical) with quantification of fibrotic area as previously described (Song et al., 2010). Terminal deoxynucleotidyl transferase dUTP nick-end label (TUNEL) staining and quantification was performed as previously described (Song et al., 2010) using the ApopTag Plus kit (Millipore) according to manufacturer's instructions. Myocardial capillary staining was performed in frozen LV sections using anti-PECAM-1 antibodies (EMD Millipore cat#CBL-1337) as previously described (Haldar et al., 2010).

[2] = Conscious tail-vein systolic blood pressure in mice; type: in vivo, mouse; conditions: JQ1 50 mg/kg/day IP, 17 days
Source text: as §1

mice with PE infusion = test: Chronic phenylephrine (PE) infusion model of cardiac hypertrophy; type: in vivo, mouse; conditions: PE 75 mg/kg/day minipump, JQ1 from 1.5 days after installation
Source text: as §2
For transthoracic echocardiography, mice were anesthetized with 1% inhalational isofluorane and imaged using the Vevo 770 High Resolution Imaging System (Visual Sonics, Inc.) and the RMV-707B 30 MHz probe. Measurements were obtained from M-mode sampling and integrated EKV images taken in the LV short axis at the mid-papillary level (Haldar et al., 2010). […] Conscious tail-vein systolic blood pressure was measured using the BP2000 Blood Pressure Analysis System (Visitech Systems, Inc.) as recommended by the manufacturer. […]

[3] = JQ1 50 mg/kg/day IP from 1.5 days after TAC, out to 4 weeks

With `Cc1sc2c(c1C)C(c1ccc(Cl)cc1)=N[C@@H](CC(=O)OC(C)(C)C)c1nnc(C)n1-2` [JQ1] the “recruitment of endogenous BRD4 and Pol II to the proximal promoter of IL6 in response to PE” value (BRD4) was “blocked this recruitment”, the “endurance exercise capacity (time to exhaustion)” value [1] was “preserved endurance exercise capacity” and the “tolerability during TAC (activity, mortality, weight loss vs vehicle)” value (mice subject to TAC; JQ1 50 mg/kg/day) was “well tolerated”. For the same compound, the “TAC-mediated LV cavity dilation (echocardiography)” value (mice subject to TAC; [3]) was “protected against”, the “TAC-mediated LV systolic dysfunction (echocardiography)” value (mice subject to TAC; [3]) was “protected against” and the “TAC-mediated LV wall thickening (echocardiography)” value (mice subject to TAC; [3]) was “protected against”. The “pathologic cardiomegaly (HW/BW)” value (mice subject to TAC; JQ1 50 mg/kg/day, 4 weeks TAC) was “inhibited”, the “pulmonary congestion (LW/BW)” value (mice subject to TAC; JQ1 50 mg/kg/day, 4 weeks TAC) was “inhibited” and the “myocardial expression of canonical hypertrophic marker genes” value (mice subject to TAC; JQ1 50 mg/kg/day, after TAC) was “inhibited”. The “effect on LV structure or function in sham treated mice” value (mice subject to TAC; JQ1 50 mg/kg/day, sham surgery) was “no adverse effect”, the “TAC-mediated induction of c-Myc expression in vivo” value (mice subject to TAC; TAC mouse hearts, qRT-PCR) was “no effect” and the “evolution of pathological gene expression program in the heart (microarray GEP)” value (mice subject to TAC; TAC, 3, 11 and 28 days) was “suppressed”. The “apoptotic cell death (TUNEL)” value (mice subject to TAC; heart tissue, 4 weeks of TAC) was “significantly attenuated”, the “capillary rarefaction (PECAM-1)” value (mice subject to TAC; heart tissue, 4 weeks of TAC) was “significantly attenuated” and the “development of cardiomyocyte hypertrophy (wheat germ agglutinin, cardiomyocyte area)” value (mice subject to TAC; heart tissue, 4 weeks of TAC) was “significantly attenuated”. The “myocardial fibrosis (Masson's Trichrome)” value (mice subject to TAC; heart tissue, 4 weeks of TAC) was “significantly attenuated”, the systemic blood pressure [2] was “does not affect” and the “LV systolic function during chronic PE infusion” value (mice with PE infusion) was “without any compromise”. For the same compound, the “development of pathologic cardiac hypertrophy during chronic PE infusion” value (mice with PE infusion) was “potently suppressed”.
